Test results: ChEMBL document CHEMBL1144896 (2003)

Legend:
Format in all cases: functional
[1] = tested on: NCI-H1299; test: (§1) Compound was tested for human telomerase reverse transcriptase-SEAP (hTERT-SEAP) activity in non-small cell lung cancer H1299 cell at 2.3 uM concentration
[2] = tested on: BJ; test: hTERT-SEAP (Human telomerase reverse transcriptase-SEAP) activity in immortalized hTERT-BJI at 230.0 uM concentration and level of cell viability determined in MTT assay
[3] = tested on: BJ; test: Compound was tested for human telomerase reverse transcriptase-SEAP (hTERT-SEAP) activity in immortalized hTERT-BJI at 23 uM concentration
[4] = tested on: BJ; test: Compound was tested for human telomerase reverse transcriptase-SEAP (hTERT-SEAP) activity in immortalized hTERT-BJI at 230.0 uM concentration
[5] = tested on: BJ; test: hTERT-SEAP (Human telomerase reverse transcriptase-SEAP) activity in immortalized hTERT-BJI at 23 uM concentration and level of cell viability determined in MTT assay
[6] = tested on: NCI-H1299; test: (§2) hTERT-SEAP (Human telomerase reverse transcriptase-SEAP) activity in non-small cell lung cancer H1299 cell at 2.3 uM concentration and level of cell viability determined in MTT assay
[7] = tested on: NCI-H1299; test: hTERT-SEAP (Human telomerase reverse transcriptase-SEAP) activity in non-small cell lung cancer H1299 cell at 23 uM concentration and level of cell viability determined in MTT assay
[8] = tested on: NCI-H1299; test: hTERT-SEAP (Human telomerase reverse transcriptase-SEAP) activity in non-small cell lung cancer H1299 cell at 230.0 uM concentration and level of cell viability determined in MTT assay
[9] = tested on: NCI-H1299; test: Compound was tested for human telomerase reverse transcriptase-SEAP (hTERT-SEAP) activity in non-small cell lung cancer H1299 cell at 23 uM concentration
[10] = tested on: NCI-H1299; test: Compound was tested for human telomerase reverse transcriptase-SEAP (hTERT-SEAP) activity in non-small cell lung cancer H1299 cell at 230.0 uM concentration
[11] = tested on: NCI-H1299; test: as §2; remark: listed apart in the source
[12] = tested on: NCI-H1299; test: as §1; remark: listed apart in the source
[13] = tested on: BJ; test: hTERT-SEAP (Human telomerase reverse transcriptase-SEAP) activity in immortalized hTERT-BJI at 2.8 uM concentration and level of cell viability determined in MTT assay
[14] = tested on: BJ; test: hTERT-SEAP (Human telomerase reverse transcriptase-SEAP) activity in immortalized hTERT-BJI at 28.0 uM concentration and level of cell viability determined in MTT assay
[15] = tested on: BJ; test: hTERT-SEAP (Human telomerase reverse transcriptase-SEAP) activity in immortalized hTERT-BJI at 280.0 uM concentration and level of cell viability determined in MTT assay
[16] = tested on: BJ; test: Compound was tested for human telomerase reverse transcriptase-SEAP (hTERT-SEAP) activity in immortalized hTERT-BJI at 28.0 uM concentration
[17] = tested on: BJ; test: Compound was tested for human telomerase reverse transcriptase-SEAP (hTERT-SEAP) activity in immortalized hTERT-BJI at 280.0 uM concentration
[18] = tested on: BJ; test: Compound was tested for human telomerase reverse transcriptase-SEAP (hTERT-SEAP) activity in immortalized hTERT-BJI at 2.8 uM concentration
[19] = tested on: NCI-H1299; test: hTERT-SEAP (Human telomerase reverse transcriptase-SEAP) activity in non-small cell lung cancer H1299 cell at 2.8 uM concentration and level of cell viability determined in MTT assay
[20] = tested on: NCI-H1299; test: Compound was tested for human telomerase reverse transcriptase-SEAP (hTERT-SEAP) activity in non-small cell lung cancer H1299 cell at 28.0 uM concentration
[21] = tested on: NCI-H1299; test: Compound was tested for human telomerase reverse transcriptase-SEAP (hTERT-SEAP) activity in non-small cell lung cancer H1299 cell at 280.0 uM concentration
[22] = tested on: NCI-H1299; test: hTERT-SEAP (Human telomerase reverse transcriptase-SEAP) activity in non-small cell lung cancer H1299 cell at 28 uM concentration and level of cell viability determined in MTT assay
[23] = tested on: NCI-H1299; test: hTERT-SEAP (Human telomerase reverse transcriptase-SEAP) activity in non-small cell lung cancer H1299 cell at 280.0 uM concentration and level of cell viability determined in MTT assay
[24] = tested on: NCI-H1299; test: Compound was tested for human telomerase reverse transcriptase-SEAP (hTERT-SEAP) activity in non-small cell lung cancer H1299 cell at 2.8 uM concentration
[25] = tested on: BJ; test: hTERT-SEAP (Human telomerase reverse transcriptase-SEAP) activity in immortalized hTERT-BJI at 19 uM concentration and level of cell viability determined in MTT assay
[26] = tested on: BJ; test: hTERT-SEAP (Human telomerase reverse transcriptase-SEAP) activity in immortalized hTERT-BJI at 190.0 uM concentration and level of cell viability determined in MTT assay
[27] = tested on: BJ; test: Compound was tested for human telomerase reverse transcriptase-SEAP (hTERT-SEAP) activity in immortalized hTERT-BJI at 19 uM concentration
[28] = tested on: BJ; test: Compound was tested for human telomerase reverse transcriptase-SEAP (hTERT-SEAP) activity in immortalized hTERT-BJI at 190.0 uM concentration
[29] = tested on: NCI-H1299; test: Compound was tested for human telomerase reverse transcriptase-SEAP (hTERT-SEAP) activity in non-small cell lung cancer H1299 cell at 1.9 uM concentration
[30] = tested on: NCI-H1299; test: Compound was tested for human telomerase reverse transcriptase-SEAP (hTERT-SEAP) activity in non-small cell lung cancer H1299 cell at 19 uM concentration
[31] = tested on: NCI-H1299; test: hTERT-SEAP (Human telomerase reverse transcriptase-SEAP) activity in non-small cell lung cancer H1299 cell at 1.9 uM concentration and level of cell viability determined in MTT assay
[32] = tested on: NCI-H1299; test: hTERT-SEAP (Human telomerase reverse transcriptase-SEAP) activity in non-small cell lung cancer H1299 cell at 19 uM concentration and level of cell viability determined in MTT assay
[33] = tested on: NCI-H1299; test: Compound was tested for human telomerase reverse transcriptase-SEAP (hTERT-SEAP) activity in non-small cell lung cancer H1299 cell at 190.0 uM concentration
[34] = tested on: NCI-H1299; test: hTERT-SEAP (Human telomerase reverse transcriptase-SEAP) activity in non-small cell lung cancer H1299 cell at 190.0 uM concentration and level of cell viability determined in MTT assay

Q: Which “Relative SEAP activity” value [1] does the source give for `O=C1c2cccc(Sc3ncccn3)c2C(=O)c2cccc(Sc3ncccn3)c21` here?
A: 137%

Q: What about the Relative viability [2] of the same molecule?
A: 73%

Q: And the “Relative SEAP activity” value [3]?
A: 125%

Q: What about the “Relative SEAP activity” value [4] of the same molecule?
A: 61%

Q: What about the Relative viability [5] of the same molecule?
A: 103%

Q: What about the Relative viability [6] of the same molecule?
A: 104%

Q: And the Relative viability [7]?
A: 99%

Q: What about the Relative viability [8] of the same molecule?
A: 44%

Q: And the “Relative SEAP activity” value [9]?
A: 110%

Q: What about the “Relative SEAP activity” value [10] of the same molecule?
A: 49%

Q: And the Relative viability [11]?
A: 107%

Q: And the “Relative SEAP activity” value [12]?
A: 105%

Q: Which results are given for `O=C1c2cccc(SCCO)c2C(=O)c2cccc(SCCO)c21`?
A: Relative viability [13]: 94%; Relative viability [14]: 49%; Relative viability [15]: 23%; Relative SEAP activity [16]: 98%; Relative SEAP activity [17]: 71%; Relative SEAP activity [18]: 104%; Relative viability [19]: 54%; Relative SEAP activity [20]: 76%; Relative SEAP activity [21]: 45%; Relative viability [22]: 29%; Relative viability [23]: 36%; Relative SEAP activity [24]: 97%

Q: Which Relative viability [25] does the source give for `O=C(Oc1cccc2c1C(=O)c1cccc(OC(=O)c3cccc(Cl)c3)c1C2=O)c1cccc(Cl)c1` here?
A: 80%

Q: And the Relative viability [26]?
A: 44%

Q: And the “Relative SEAP activity” value [27]?
A: 152%

Q: What about the “Relative SEAP activity” value [28] of the same molecule?
A: 91%

Q: What about the “Relative SEAP activity” value [29] of the same molecule?
A: 83%

Q: And the “Relative SEAP activity” value [30]?
A: 92%

Q: And the Relative viability [31]?
A: 98%

Q: What about the Relative viability [32] of the same molecule?
A: 88%

Q: And the “Relative SEAP activity” value [33]?
A: 81%

Q: What about the Relative viability [34] of the same molecule?
A: 46%

Q: How did the Relative viability [25] turn out when `O=C(Oc1cccc2c1C(=O)c1cccc(OC(=O)c3ccccc3Cl)c1C2=O)c1ccccc1Cl` was run?
A: 92%

Q: What about the Relative viability [26] of the same molecule?
A: 40%

Q: And the “Relative SEAP activity” value [27]?
A: 116%

Q: And the “Relative SEAP activity” value [28]?
A: 97%

Q: What about the “Relative SEAP activity” value [29] of the same molecule?
A: 93%

Q: And the “Relative SEAP activity” value [30]?
A: 101%

Q: What about the Relative viability [31] of the same molecule?
A: 74%

Q: What about the Relative viability [32] of the same molecule?
A: 34%

Q: And the “Relative SEAP activity” value [33]?
A: 97%

Q: What about the Relative viability [34] of the same molecule?
A: 30%
